Species on record: Rattus norvegicus
Experiment: Open TG-GATES - Regimen: Daily Repeat
Type: toxicity, organism-based, Sprague-Dawley
Set-up: regimen Daily Repeat, gender Male, age 6 weeks
Conditions: in vivo, po, 300 mg/kg, route gavage, dose level Middle; for APTT / Bas / Eos / Fbg / Hb / Ht / Lym / MCH / MCHC / MCV / Mono / Neu / PT / Plat / RBC / Ret / WBC: tissue Blood; for KIDNEY_L / KIDNEY_R / KIDNEY_TOTAL: tissue Kidney; for LIVER: tissue Liver; for A/G / ALP / ALT / AST / BUN / CRE / Ca / Cl / DBIL / GLC / IP / K / LDH / Na / PL / RALB / TBIL / TC / TG / TP / gamma-GTP: tissue Plasma

For `Cc1nnc2n1-c1ccc(Cl)cc1C(c1ccccc1Cl)=NC2` [TRIAZOLAM], the TERMINAL_BW (72 h, time 3 day) was 220.9 g, the APTT (72 h, time 3 day) was 25.7 s and the Bas (72 h, time 3 day) was 0.2%. For the same compound, the Eos (72 h, time 3 day) was 1%, the Fbg (72 h, time 3 day) was 302 mg/dL and the Hb (72 h, time 3 day) was 13.8 g/dL. It also gave a Ht (72 h, time 3 day) of 41.2%, a Lym (72 h, time 3 day) of 78.6% and an MCH (72 h, time 3 day) of 21.6 pg. It also gave an MCHC (72 h, time 3 day) of 33.4%, an MCV (72 h, time 3 day) of 64.4 fL and a Mono (72 h, time 3 day) of 3.2%. It also gave a Neu (72 h, time 3 day) of 16.2%, a PT (72 h, time 3 day) of 12.8 s and a Plat (72 h, time 3 day) of 108.5 x10_4/uL. For the same compound, the RBC (72 h, time 3 day) was 639.2 x10_4/ul, the Ret (72 h, time 3 day) was 6.8% and the WBC (72 h, time 3 day) was 124.2 x10_2/uL. It also gave a KIDNEY_L (72 h, time 3 day) of 1 g, a KIDNEY_R (72 h, time 3 day) of 1 g and a KIDNEY_TOTAL (72 h, time 3 day) of 1.9 g. The LIVER (72 h, time 3 day) was 10.9 g, the A/G (72 h, time 3 day) was 0.9 and the ALP (72 h, time 3 day) was 1522.4 IU/L. The ALT (72 h, time 3 day) was 53.4 IU/L, the AST (72 h, time 3 day) was 74.4 IU/L and the BUN (72 h, time 3 day) was 14.6 mg/dL. It also gave a CRE (72 h, time 3 day) of 0.2 mg/dL, a Ca (72 h, time 3 day) of 11.1 mg/dL and a Cl (72 h, time 3 day) of 104.2 meq/L. It also gave a DBIL (72 h, time 3 day) of 0.014 mg/dL, a GLC (72 h, time 3 day) of 176.8 mg/dL and an IP (72 h, time 3 day) of 8.2 mg/dL. For the same compound, the K (72 h, time 3 day) was 3.9 meq/L, the LDH (72 h, time 3 day) was 104.8 IU/L and the Na (72 h, time 3 day) was 141.6 meq/L. For the same compound, the PL (72 h, time 3 day) was 155 mg/dL, the RALB (72 h, time 3 day) was 2.6 g/dL and the TBIL (72 h, time 3 day) was 0.048 mg/dL. For the same compound, the TC (72 h, time 3 day) was 81 mg/dL, the TG (72 h, time 3 day) was 82 mg/dL and the TP (72 h, time 3 day) was 5.6 g/dL. The gamma-GTP (72 h, time 3 day) was 1 IU/L, the TERMINAL_BW ([…], time 7 day) was 262.7 g and the TERMINAL_BW ([…], time 14 day) was 306.6 g. For the same compound, the TERMINAL_BW ([…], time 28 day) was 407.3 g, the APTT ([…], time 7 day) was 19.2 s and the Bas ([…], time 7 day) was 0%. For the same compound, the Eos ([…], time 7 day) was 1%, the Fbg ([…], time 7 day) was 262.6 mg/dL and the Hb ([…], time 7 day) was 13.6 g/dL. It also gave a Ht ([…], time 7 day) of 40.5%, a Lym ([…], time 7 day) of 76.6% and an MCH ([…], time 7 day) of 21.4 pg. It also gave an MCHC ([…], time 7 day) of 33.6%, an MCV ([…], time 7 day) of 63.6 fL and a Mono ([…], time 7 day) of 3.4%. It also gave a Neu ([…], time 7 day) of 18.6%, a PT ([…], time 7 day) of 12.8 s and a Plat ([…], time 7 day) of 124.7 x10_4/uL. For the same compound, the RBC ([…], time 7 day) was 637.8 x10_4/ul, the Ret ([…], time 7 day) was 7% and the WBC ([…], time 7 day) was 119.6 x10_2/uL. For the same compound, the APTT ([…], time 14 day) was 17.8 s, the Bas ([…], time 14 day) was 0.4% and the Eos ([…], time 14 day) was 1%. It also gave a Fbg ([…], time 14 day) of 245.8 mg/dL, a Hb ([…], time 14 day) of 14.1 g/dL and a Ht ([…], time 14 day) of 43.1%. It also gave a Lym ([…], time 14 day) of 76%, an MCH ([…], time 14 day) of 19.9 pg and an MCHC ([…], time 14 day) of 32.8%. For the same compound, the MCV ([…], time 14 day) was 60.8 fL, the Mono ([…], time 14 day) was 2.2% and the Neu ([…], time 14 day) was 19.4%. For the same compound, the PT ([…], time 14 day) was 13.5 s, the Plat ([…], time 14 day) was 113 x10_4/uL and the RBC ([…], time 14 day) was 710 x10_4/ul. It also gave a Ret ([…], time 14 day) of 4.9%, a WBC ([…], time 14 day) of 121.8 x10_2/uL and an APTT ([…], time 28 day) of 18.4 s. It also gave a Bas ([…], time 28 day) of 0%, an Eos ([…], time 28 day) of 1.2% and a Fbg ([…], time 28 day) of 262.4 mg/dL. The Hb ([…], time 28 day) was 15.3 g/dL, the Ht ([…], time 28 day) was 45.6% and the Lym ([…], time 28 day) was 82%. It also gave an MCH ([…], time 28 day) of 19.3 pg, an MCHC ([…], time 28 day) of 33.6% and an MCV ([…], time 28 day) of 57.5 fL. For the same compound, the Mono ([…], time 28 day) was 1.4%, the Neu ([…], time 28 day) was 14.2% and the PT ([…], time 28 day) was 13.6 s. For the same compound, the Plat ([…], time 28 day) was 106.2 x10_4/uL, the RBC ([…], time 28 day) was 793.4 x10_4/ul and the Ret ([…], time 28 day) was 2.3%. For the same compound, the WBC ([…], time 28 day) was 88.2 x10_2/uL, the KIDNEY_L ([…], time 7 day) was 1.1 g and the KIDNEY_R ([…], time 7 day) was 1.1 g. It also gave a KIDNEY_TOTAL ([…], time 7 day) of 2.2 g, a KIDNEY_L ([…], time 14 day) of 1.2 g and a KIDNEY_R ([…], time 14 day) of 1.2 g. The KIDNEY_TOTAL ([…], time 14 day) was 2.4 g, the KIDNEY_L ([…], time 28 day) was 1.4 g and the KIDNEY_R ([…], time 28 day) was 1.4 g. It also gave a KIDNEY_TOTAL ([…], time 28 day) of 2.8 g, an LIVER ([…], time 7 day) of 12.6 g and an LIVER ([…], time 14 day) of 13.4 g. The LIVER ([…], time 28 day) was 15.8 g, the A/G ([…], time 7 day) was 0.9 and the ALP ([…], time 7 day) was 1686 IU/L. For the same compound, the ALT ([…], time 7 day) was 53 IU/L, the AST ([…], time 7 day) was 75 IU/L and the BUN ([…], time 7 day) was 19 mg/dL. The CRE ([…], time 7 day) was 0.2 mg/dL, the Ca ([…], time 7 day) was 11.1 mg/dL and the Cl ([…], time 7 day) was 104.8 meq/L. The DBIL ([…], time 7 day) was 0.012 mg/dL, the GLC ([…], time 7 day) was 187.2 mg/dL and the IP ([…], time 7 day) was 7.5 mg/dL. The K ([…], time 7 day) was 4.2 meq/L, the LDH ([…], time 7 day) was 84.8 IU/L and the Na ([…], time 7 day) was 141.4 meq/L. For the same compound, the PL ([…], time 7 day) was 162.8 mg/dL, the RALB ([…], time 7 day) was 2.6 g/dL and the TBIL ([…], time 7 day) was 0.038 mg/dL. For the same compound, the TC ([…], time 7 day) was 79 mg/dL, the TG ([…], time 7 day) was 103.4 mg/dL and the TP ([…], time 7 day) was 5.7 g/dL. It also gave a gamma-GTP ([…], time 7 day) of 1 IU/L, an A/G ([…], time 14 day) of 0.8 and an ALP ([…], time 14 day) of 1485.8 IU/L. For the same compound, the ALT ([…], time 14 day) was 43 IU/L, the AST ([…], time 14 day) was 73 IU/L and the BUN ([…], time 14 day) was 15 mg/dL. For the same compound, the CRE ([…], time 14 day) was 0.2 mg/dL, the Ca ([…], time 14 day) was 10.8 mg/dL and the Cl ([…], time 14 day) was 104.6 meq/L. It also gave a DBIL ([…], time 14 day) of 0.008 mg/dL, a GLC ([…], time 14 day) of 182.2 mg/dL and an IP ([…], time 14 day) of 7.2 mg/dL. The K ([…], time 14 day) was 4.1 meq/L, the LDH ([…], time 14 day) was 87.4 IU/L and the Na ([…], time 14 day) was 142.8 meq/L. It also gave a PL ([…], time 14 day) of 140 mg/dL, an RALB ([…], time 14 day) of 2.6 g/dL and a TBIL ([…], time 14 day) of 0.036 mg/dL. For the same compound, the TC ([…], time 14 day) was 67.2 mg/dL, the TG ([…], time 14 day) was 105.4 mg/dL and the TP ([…], time 14 day) was 5.7 g/dL. The gamma-GTP ([…], time 14 day) was 1.2 IU/L, the A/G ([…], time 28 day) was 0.8 and the ALP ([…], time 28 day) was 1211.8 IU/L. The ALT ([…], time 28 day) was 36.4 IU/L, the AST ([…], time 28 day) was 67.8 IU/L and the BUN ([…], time 28 day) was 16.8 mg/dL. It also gave a CRE ([…], time 28 day) of 0.3 mg/dL, a Ca ([…], time 28 day) of 10.7 mg/dL and a Cl ([…], time 28 day) of 105 meq/L. For the same compound, the DBIL ([…], time 28 day) was 0.012 mg/dL, the GLC ([…], time 28 day) was 186.4 mg/dL and the IP ([…], time 28 day) was 6.2 mg/dL. For the same compound, the K ([…], time 28 day) was 4.1 meq/L, the LDH ([…], time 28 day) was 82.2 IU/L and the Na ([…], time 28 day) was 142 meq/L. The PL ([…], time 28 day) was 145.8 mg/dL, the RALB ([…], time 28 day) was 2.7 g/dL and the TBIL ([…], time 28 day) was 0.058 mg/dL. For the same compound, the TC ([…], time 28 day) was 70.6 mg/dL, the TG ([…], time 28 day) was 110.8 mg/dL and the TP ([…], time 28 day) was 6.2 g/dL. For the same compound, the gamma-GTP ([…], time 28 day) was 1 IU/L.
